The source of these data is patent publication US20190212325A1, “AN EX VIVO METHOD FOR TESTING CELLULAR RESPONSEIVENESS OF PRIMARY CELL POPULATIONS TO A DRUG OR COMBINATION OF DRUGS” (VIVIA BIOTECH, S.L, priority 2015, published 2019).

The test system of one assay is primary CLL cells. The experiment in a line: Ex vivo viability (Annexin V) and proliferation (CFDA) of primary CLL cells with AE, HS-5 stroma and CpG+IL-2, drug dose response. It counts as cell-based. The following applies: 96 hours, 1.6% AE, 10% Human Serum, HS-5 100:1, CpG ODN + IL-2, 8 concentrations.
The next assay has as its system primary MM cells. The assay is described as follows: Ex vivo viability (Annexin V) and proliferation (CFDA) of primary MM cells in whole BM with AE (autologous plasma), lenalidomide dose response. The format is cell-based, human. To be noted: 96 hours, 20% autologous plasma (AE). The text has this: Patient whole BM was obtained and prepared as indicated above for each sample type. The Vybrant® CFDA SE Cell Tracer Kit (Molecular Probes) was used to measure cell proliferation as it has been disclosed in Example 3. After the CFDA protocol, all samples were resuspented in Culture Medium+Zell Shield (Labclinics)+L-Glu (Lonza)+20% FBS. Condition A samples stayed as is, condition B samples had different concentrations of autologous MM plasma plus RBCs added and condition C samples received 20% autologous plasma. The final cell concentration ranged from 20 cells/μl to 70 cells/μl. Alternatively, the autologous plasma can be replaced with a pool of three MM plasmas.
The CFDA labeled plasmatic cells were dispensed into 96-well plates (60 μl/well) and incubated at 37° C. with 5% CO2 during 72 or 96 hours. For analysis, MM cells (assessed by monoclonal antibodies) were tested for both viability (Annexin-V staining) and proliferation (CFDA).
After 96 hours of culture, the CFDA staining in conjunction with the immunophenotyping allowed for the analysis of both viability (Annexin-V negative) and proliferation (CFDA peaks) of the plasmatic cells, following the previously described methods using Vivia's ExviTech platform.
As the number of MM cells detected after 96 hours of incubation was too low in just a single well, a pooled well assay was performed, obtaining sample from 4 wells that have been treated in an identical manner. […] According to this, and based on the initial cell count, calculation of the sample volume was done for plating between 1000 and 4000 live pathological MM cells per well. During acquisition, sample from four wells was obtained for each treatment, thus obtaining a minimum of 4000 and a maximum of 16000 live plasmatic cells. The results of these experiments indicate that the use of patient's whole bone marrow plus 20% of autologous plasma, or a pool of at least 3 MM plasmas (Condition C from above) and the use of IMDM culture medium provided the best conditions to achieve better MM cells viability and higher proliferation rates (data not shown). Additionally, the presence of either of the two human stromal cell lines, HS27a and HS5, appeared to have a negative effect on both viability and proliferation.
Some drugs used to treat tumor cells preferentially target cells that are actively proliferating, acting as anti-proliferative agents. An example of this is the use of lenalidomide to treat patients diagnosed with MM. The efficacy of lenalidomide is difficult to assess in ex vivo assays against MM primary tumor cells, as these cells have very low levels of proliferation under the conditions that have traditionally been used. In this example, we tested BM samples from 10 patients diagnosed with MM in our ex vivo assay. AE (plasma only) was added to the culture medium to increase levels of proliferation and lenalidomide was tested across a concentration range of 0.03 to 30 μM.
Whole BM from 10 MM patients was cultured in IMDM medium supplemented with 1% antibiotic, 1% L-Glutamine plus an additional 20% of autologous plasma (AE), for 96 hours. Samples were processed and analyzed as outlined in Example 12. MM cell viability (Annexin V) and proliferation (CFDA) were tested against 4 concentrations of Lenalidomide.

As to `CC[C@H](Nc1ncnc2[nH]cnc12)c1nc2cccc(F)c2c(=O)n1-c1ccccc1` [Idelalisib], the “effect on Non-Proliferative (NP) Live Tumor Cells (survival index)” value with primary CLL cells (NP fraction) was “little effect”. Moreover, the “inhibition of the proliferation, Proliferative (PR) cell fraction (survival index)” value in the assay on primary CLL cells (PR fraction) is recorded as “potent inhibition of the proliferation is observed in the low nM range”.

Regarding `Nc1cccc2c1CN(C1CCC(=O)NC1=O)C2=O` (centres unmarked) [lenalidomide], in the assay on primary MM cells (sample 1, 0.03 to 30 μM), the “effect on NP MM cells (survival index)” value was “no effect” and the “effect on PR MM cells (survival index)” value is on record as “no effect”. The PR cells eliminated result in the assay on primary MM cells (sample 3) is “about 60%”. Further, the NP cells eliminated result in the assay with primary MM cells (sample 3, at a higher concentration) is “about 20%”. The “potency against the PR population” value in the assay on primary MM cells (sample 3, low concentration) is “very potent”. For the same molecule, in the assay with primary MM cells (sample 6), the “effect in the NP population” value is given as “small effect” and the “effect on the PR population” value is “no effect”. Moreover, in the assay on primary MM cells (sample 7), the “effect against the PR cells” value was “very potent and effective”. In addition, the “effect on the NP cells” value in the assay with primary MM cells (sample 7, at a higher concentration) was “effects the NP cells”.
